Data set [1] deals with T1, Calcium/calmodulin-dependent protein kinase type II subunit alpha (Rattus norvegicus, UniProt P11275). The data set can be described thus: Inhibition of [3H]NCS-382 binding to CaMKIIalpha in rat brain cortical membrane assessed as inhibition constant incubated for 1 hrs by TopCount NXT microplate scintillation counter analysis. The class given is cell membranes, Cortex. As to conditions: read-out: Ki.

Data set [2] addresses T1, Calcium/calmodulin-dependent protein kinase type II subunit alpha. Nature of the data set: Inhibition of […] binding to CaMKIIalpha in rat brain cortical membrane assessed as inhibition constant incubated for 1 hrs by TopCount NXT microplate scintillation counter analysis. The class given is cell membranes, Cortex. As to conditions: for pKi: read-out: Ki; for Ki: read-out: pKi (converted).

Data set [3] is described as follows: Metabolic stability in pooled CD-1 mouse liver microsomes assessed as parent compound remaining at 10 uM measured immediately in presence of NADPH regeneration system by LC-MS analysis. It counts as ADME, Microsome. To be noted: read-out: Stability.
A short description of data set [4]: Metabolic stability in pooled human plasma assessed as parent compound remaining at 20 uM measured after 120 mins by LC-MS analysis. The class given is ADME, cell-free. As to conditions: read-out: Stability.
A short description of data set [5]: Metabolic stability in pooled CD-1 mouse liver microsomes assessed as parent compound remaining at 10 uM measured after 60 mins in presence of NADPH regeneration system by LC-MS analysis. The class given is ADME, Microsome. To be noted: read-out: Stability. Background: Microsomes from liver hold many membrane-bound enzymes, among them those of drug oxidation.

Data set [6] deals with BCRP. Nature of the data set: Efflux ratio of apparent permeability across basolateral to apical side over apical to basolateral side in human Caco-2 cells transfected with human BCRP at 3 uM measured after 60 to 90 mins by LC-MS/MS analysis. It counts as ADME, cell-based. To be noted: time 60-90 min. In general terms: Caco-2 monolayers are a common model of the intestinal barrier.

The test system of data set [7] is BCRP. Nature of the data set: Apparent permeability across apical to basolateral side in human Caco-2 cells transfected with human BCRP at 3 uM measured after 60 to 90 mins by LC-MS/MS analysis. It counts as ADME, cell-based. As to conditions: time 60-90 min.
Data set [8] can be described thus: Metabolic stability in pooled CD-1 mouse liver microsomes assessed as parent compound remaining at 10 uM measured after 30 mins in presence of NADPH regeneration system by LC-MS analysis. The class given is ADME, Microsome. To be noted: read-out: Stability.
The nature of data set [9]: Metabolic stability in pooled human plasma assessed as parent compound remaining at 20 uM measured immediately by LC-MS analysis. It counts as ADME, cell-free. As to conditions: read-out: Stability.
Data set [10] is described as follows: Drug concentration in mouse plasma at 10 mg/kg, ip measured after 0.5 hrs by LC-MS/MS analysis. The class given is ADME, organism-based.
For data set [11], the system named is BCRP. Nature of the data set: Apparent permeability across basolateral to apical side in human Caco-2 cells transfected with human BCRP at 3 uM measured after 60 to 90 mins by LC-MS/MS analysis. The class given is ADME, cell-based. To be noted: time 60-90 min.
Data set [12] has as its target T2, Calcium/calmodulin-dependent protein kinase type II subunit alpha (Homo sapiens, UniProt Q9UQM7). The data set can be described thus: Induction of thermal stabilization of recombinant wildtype human CAMKIIalpha hub domain (345 to 475 residues) extracted from Escherichia coli BL21 (DE3) cells assessed as change in melting temperature at 0.625 to 320 microM by differential scanning fluorimetric analysis. To be noted: dose 0.625-320 µM. On the technique in general: In DSF a fluorescence change marks the thermal transition of the protein.

Data set [13] has as its system BCRP. The data set can be described thus: Apparent permeability across basolateral to apical side in human Caco-2 cells transfected with human BCRP at 3 uM preincubated with novobiocin for 15 to 30 mins followed by compound addition and measured after 60 to 90 mins by LC-MS/MS analysis. The class given is ADME, cell-based. To be noted: time 60-90 min.
A short description of data set [14]: Chemical stability of compound in phosphate buffer solution at pH 7.4. The class given is physicochemical.
Data set [15] is described as follows: Ratio of unbound brain to plasma drug concentration in mouse at 10 mg/kg, ip measured after 0.5 hrs by LC-MS/MS analysis. To be noted: brain and plasma, read-out: K(p,uu,brain). It counts as ADME, organism-based.
The target of data set [16] is T2, Calcium/calmodulin-dependent protein kinase type II subunit alpha. The data set can be described thus: Binding affinity to recombinant wildtype human CAMKIIalpha hub domain (345 to 475 residues) extracted from Escherichia coli BL21 (DE3) cells assessed as dissociation constant by SPR analysis.
Data set [17] can be described thus: Metabolic stability in pooled human plasma assessed as parent compound remaining at 20 uM measured after 30 mins by LC-MS analysis. It counts as ADME, cell-free. To be noted: read-out: Stability.
Data set [18] can be described thus: Ratio of drug concentration in mouse brain to plasma at 10 mg/kg, ip measured after 0.5 hrs by LC-MS/MS analysis. The class given is ADME, organism-based. To be noted: brain and plasma, read-out: BPR.
The nature of data set [19]: Drug concentration in mouse brain at 10 mg/kg, ip measured after 0.5 hrs by LC-MS/MS analysis. The class given is ADME, organism-based. As to conditions: read-out: Ct.
Data set [20] deals with T2, Calcium/calmodulin-dependent protein kinase type II subunit alpha. The data set can be described thus: Induction of thermal stabilization of recombinant wildtype human CAMKIIalpha hub domain (345 to 475 residues) extracted from Escherichia coli BL21 (DE3) cells by differential scanning fluorimetric analysis. To be noted: dose 0.625-320 µM.
The nature of data set [21]: Metabolic stability in pooled CD-1 mouse liver microsomes assessed as parent compound remaining at 10 uM measured after 15 mins in presence of NADPH regeneration system by LC-MS analysis. The class given is ADME, Microsome. To be noted: read-out: Stability.
Data set [22] relates to BCRP. Nature of the data set: Efflux ratio of apparent permeability across basolateral to apical side over apical to basolateral side in human Caco-2 cells transfected with human BCRP at 3 uM preincubated with novobiocin for 15 to 30 mins followed by compound addition and measured after 60 to 90 mins by LC-MS/MS analysis. To be noted: time 60-90 min. The class given is ADME, cell-based.

The subject of data set [23] is BCRP. The data set can be described thus: Apparent permeability across apical to basolateral side in human Caco-2 cells transfected with human BCRP at 3 uM preincubated with novobiocin for 15 to 30 mins followed by compound addition and measured after 60 to 90 mins by LC-MS/MS analysis. The class given is ADME, cell-based. To be noted: time 60-90 min.
Data set [24] is described as follows: Metabolic stability in pooled human plasma assessed as parent compound remaining at 20 uM measured after 60 mins by LC-MS analysis. As to conditions: read-out: Stability. The class given is ADME, cell-free.
Data set [25] is described as follows: physchem. To be noted: potassium phosphate buffer, pH 7.4.
Description: Stability of compound in potassium phosphate buffer at pH 7.4 assessed as half-life

Molecules are shown by their SMILES. pKd, pKi: −log10 of the molar value.

T2 sequence (Q9UQM7 whole entry, the tested form may be a part): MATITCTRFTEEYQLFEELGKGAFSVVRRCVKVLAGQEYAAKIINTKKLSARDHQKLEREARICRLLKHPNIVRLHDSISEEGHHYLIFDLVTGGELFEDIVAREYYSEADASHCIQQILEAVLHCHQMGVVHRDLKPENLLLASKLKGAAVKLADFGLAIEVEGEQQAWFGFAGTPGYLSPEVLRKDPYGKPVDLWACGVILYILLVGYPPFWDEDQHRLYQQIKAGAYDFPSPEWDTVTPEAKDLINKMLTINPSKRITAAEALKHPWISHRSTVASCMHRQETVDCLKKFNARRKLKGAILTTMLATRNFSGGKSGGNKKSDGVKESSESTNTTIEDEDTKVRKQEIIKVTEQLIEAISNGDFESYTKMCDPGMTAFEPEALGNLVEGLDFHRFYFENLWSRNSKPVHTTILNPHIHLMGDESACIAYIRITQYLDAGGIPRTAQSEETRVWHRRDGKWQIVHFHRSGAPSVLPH
T1 sequence (P11275 whole entry): as the sequence (Q9UQM7 whole entry, the tested form may be a part) above, with S324N counted along it

Usually pKi stands for the negative decadic logarithm of the Ki, by convention in mol/L. For `O=C(Nc1nc(C(=O)O)cs1)c1ccccc1`, the pKi in data set [1] is below 4.00.

As for `O=C(O)c1csc(CCc2ccccc2)n1`, the pKi in data set [2] was 5.59.

The term efflux ratio denotes the permeability from basolateral to apical divided by that in the opposite direction, in the common usage. Usually Papp A→B stands for the apparent permeability from the apical to the basolateral side of a cell layer. As usually defined, the Papp B→A is how fast a substance crosses the layer from the basolateral side. A word on the ΔTm: it is the shift of the melting midpoint relative to a reference. As a reminder, the pKd is the Kd on a negative log10 scale, so that one unit is a factor of ten. With `O=C(O)c1csc(-c2c(Cl)cccc2Cl)n1`, the remaining at 0 min, 10 µM in [3] came to 100%. Besides, the remaining at 2 h, 20 µM in [4] was 94%. In data set [5], the remaining at 1 h, 10 µM is 100%. Also, the efflux ratio at 3 µM in data set [6] turned out to be 1.06; in [22], 1.05. In addition, the Papp A→B at 3 µM is 10.7 ×10⁻⁶ cm/s in data set [7] and 10.9 ×10⁻⁶ cm/s in data set [23]. Also, in [8], the remaining at 0.5 h, 10 µM was found to be 104%. For the same compound, the remaining at 0 min, 20 µM in [9] turned out to be 100%. Besides, the concentration at 0.5 h in data set [10] stood at 18600 ng/mL; in data set [19] it was 350 ng/g. The Papp B→A at 3 µM worked out at 11.3 ×10⁻⁶ cm/s in data set [11] and 11.4 ×10⁻⁶ cm/s in data set [13]. Further, the shift in melting temperature (ΔTm) in [12] came out at 21.4 °C. For the same compound, in data set [14], the Stability entry was “Stable”. In data set [15], the Kp uu at 0.5 h was determined as 0.1. Besides, the pKd in data set [16] was 6.12. Further, the remaining at 0.5 h, 20 µM in data set [17] was found to be 101%. Further, in data set [18], the Kp at 0.5 h is 0.02. In addition, in data set [20], the Activity entry was “Dose-dependent-effect”. Further, the remaining at 0.25 h, 10 µM in [21] is 101%. In addition, in data set [2], the pKi was 7.21. Besides, in [24], the remaining at 1 h, 20 µM was 98%.

Regarding `Cc1ccc(-c2nc(C(=O)O)cs2)cc1`, in data set [2], the pKi was 5.64 and the Ki is 12600 nM.

For `COc1cccc(-c2nc(C(=O)O)cs2)c1`, the pKi in data set [2] was 5.00.

On to `O=C(O)c1csc(-c2ccc(C(F)(F)F)cc2)n1`, for which the pKi in data set [1] was 4.99.

With `O=C(O)Cc1csc(Cc2ccccc2)n1`, the pKi in data set [2] was below 5.00.

A word on the half-life: it is the time needed for the level to fall by half in the phase considered. Lower therefore signals fast loss. With `CCN(CC)CCOC(=O)c1ccc(N)cc1` [PROCAINE], the half-life in data set [25] was 2 min.

As to `O=C(O)Cc1csc(-c2ccccc2)n1`, the negative logarithm of the Ki (pKi) in data set [2] is 5.51.

Take `O=C(O)c1csc(-c2ccncc2)n1`: the pKi in data set [2] was 4.22.

In the case of `O=C(O)c1cnc(-c2ccccc2)s1`, the pKi in [2] is below 4.00.

On to `OC1(c2nc(-c3c(Cl)cccc3Cl)cs2)COC1`, for which the pKi in data set [2] is below 4.00.

For `Cc1ccc(-c2nc(CC(=O)O)cs2)cc1`, the negative-log Ki (pKi) in data set [2] was 5.54.

For `O=C(O)c1csc(-c2ccc(Cl)c(Cl)c2)n1`, in [2], the pKi is 5.80.

`Clc1cccc(Cl)c1-c1nc(-c2nnn[nH]2)cs1`: the pKi in data set [2] is 6.72.

On to `Clc1cccc(Cl)c1-c1nc(Cc2nnn[nH]2)cs1`, for which the pKi in data set [2] was 4.35.

For `O=C(O)C1=CC(O)CC1` (stereo unspecified), the Ki in data set [2] is 126 nM.

In the case of `O=C(O)c1csc(-c2ccccc2I)n1`, in data set [1], the negative-log Ki (pKi) was 6.80.

As to `O=C(O)c1csc(-c2c(Br)cccc2Br)n1`, the ΔTm in data set [12] was 22 °C. Also, in [20], the Activity entry is “Dose-dependent-effect”. Also, the pKi in data set [2] was 7.30.

Take `O=C(O)c1csc(-c2c(I)cccc2I)n1`: in data set [2], the pKi is 6.80.

`O=C(O)c1csc(-c2cccc(O)c2)n1`: in data set [2], the negative logarithm of the Ki (pKi) was 5.57.

Source of the values: ChEMBL document CHEMBL6096733, “Structure-Based Virtual Screening Identifies 2-Arylthiazole-4-Carboxylic Acids as a Novel Class of Nanomolar Affinity Ligands for the CaMKIIα Hub Domain” (J Med Chem, 2025).
